These results are taken from ChEMBL document CHEMBL3882721, “2-phenyl benzimidazoles and imidazo-4,5|-pyridines as CDS1/CHK2-inhibitors and adjuvants to chemotherapy or radiation therapy in the treatment of cancer” (2007).

One experiment relates to spleen. The experiment is described as follows: Cytoprotective activity against 137Cs gamma-radiation-induced apoptosis in C57/BL6 mouse spleen cells preincubated for 1 hr followed by irradiation measured after 6 to 24 hrs by annexin V/FITC-propidium iodide staining-based FACS analysis. In kind it is functional, cell-based. Background: In flow cytometry, cells or beads pass a laser one at a time.

A short description of experiment [1]: Anticlonogenic activity against ionizing radiation/chemotherapeutic agent-treated clonogenic tumor cells (unknown origin) preincubated for 12 to 48 hrs followed by growth medium addition without compound measured after 7 to 14 days by crystal violet staining-based assay relative to control. Format: functional.

SMILES strings stand for the structures. The source made the active and inactive calls. The rule behind the calls is not given here.

For the compound `COc1cc(Oc2ccc(-c3nc4cc(C(N)=O)ccc4[nH]3)cc2)ccc1Br`, the outcome in the experiment with spleen was Active. On to `NC(=O)c1ccc2[nH]c(-c3ccc(Oc4ccc5c(c4)OCO5)cc3)nc2c1`, for which the result in the experiment with spleen was Active. In the case of `COc1cccc(Sc2ccc(-c3nc4cc(C(N)=O)ccc4[nH]3)cc2)c1`, the outcome in the experiment with spleen was Active. For the compound `COc1ccc(Sc2ccc(-c3nc4cc(C(N)=O)ccc4[nH]3)cc2)cc1`, the outcome in the experiment with spleen was Active. On to `NC(=O)c1ccc2[nH]c(-c3ccc(Oc4ccc5ccccc5c4)cc3)nc2c1`, for which the result in the experiment on spleen was Active. `NC(=O)c1ccc2[nH]c(-c3ccc(Oc4ccc(Br)cc4)cc3)nc2c1`: the result in the experiment with spleen was Active. With `NC(=O)c1ccc2[nH]c(-c3ccc(Oc4ccc(Cl)cc4)cc3)nc2c1`, the result (in experiment [1]; in the experiment with spleen) was Active. As to `NC(=O)c1ccc2[nH]c(-c3ccc(Sc4ccc(F)c(Cl)c4)cc3)nc2c1`, the result in the experiment on spleen was Active. As for `NC(=O)c1ccc2[nH]c(-c3ccc(Oc4ccc(Br)c(O)c4)cc3)nc2c1`, the outcome in the experiment on spleen was Active. Turning to `NC(=O)c1ccc2[nH]c(-c3ccc(Sc4ccc(O)cc4)cc3)nc2c1`, the result with spleen was Active. Consider `NC(=O)c1ccc2[nH]c(-c3ccc(Oc4ccc(I)cc4)cc3)nc2c1`, for which, in the experiment on spleen, the result was Active. Same read-out and setting: the entry for `Cc1ccc(Sc2ccc(-c3nc4cc(C(N)=O)ccc4[nH]3)cn2)cc1` is “Active”; for `NC(=O)c1ccc2[nH]c(-c3ccc(Sc4ccc(Cl)cc4)nc3)nc2c1` it is “Active”.
